From patent US4853401A, “Spiro-hydantoins as aldose reductase inhibitors” (priority 1987, dated 1989) come the findings set out here.

Usually LD50 stands for the dose at which mortality reaches 50%. In general, inhibition refers to the relative decrease from the control value, in per cent.

Data set [1] is described as follows: Acute oral toxicity (LD50). The class given is in vivo. As to conditions: mouse, in vivo, mice, read-out: Lethal dose LD50. The procedure: The LD 50 was calculated by the method of Litchfield and Wilcoxon (J. Pharmacol. Exp. Ther., 96, 99, 1949) and is expressed in mg/kg. The products were orally administered to mice.
Behaviour was studied, 2, 4, 6 and 24 hours after treatment. Observation was continued if symptoms persisted at that time. Deaths were recorded during the 14 days after treatment. The results are given in Table II, in which the numbers of the compounds are the same as the numbers given in column 1 of Table I.

The subject of data set [2] is accumulation of sorbitol in the sciatic nerves. Kind of data set: Inhibition of accumulation of sorbitol in sciatic nerves of diabetic rats. The class given is in vivo, Sprague Dawley rats. Particulars: oral 25 mg/kg at 0, 7 and 24 h, sacrificed 27 h. The procedure:
(§1) 2.1 Inhibition of accumulation of sorbitol in crystalline lenses and nerves of diabetic rats:
(§2) The effects of the products according to the invention on the proportion of plasma glucose and the accumulation of sorbitol in the crystalline lenses and sciatic nerves of rats made diabetic by streptozotocin were examined by the method of M. J. Peterson, et al (Metabolism, 28, 456-461 (1979)).
(§3) Fasted Sprague Dawley rats were made diabetic by intraperitoneal injection of streptozotocin (75 mg/kg). The product under test was orally administered at a dose of 25 mg/kg after 0, 7 and 24 hours. The rats were sacrificed 27 hours after induction of diabetes. The crystalline lenses and sciatic nerves were taken and preserved at -20° C. until analysed. The crystalline lenses and sciatic nerves were homogenized in water and the proteins were precipitated from ethanol. The precipitate was eliminated by centrifuging and the supernatant liquid was lyophylised. The sorbitol in the sample was determined by the method of B. Bjorkqvist (J. of Chromatograph, 218, 65-71 (1981)), adapted by A. Lenaers et al. (Arch. Intern. Physiol. Bioch., 91, B, 62-63 (1983)).
(§4) The sample was dissolved in pyridine containing galactitol as an internal standard. Derivatives were formed therefrom by phenylisocyanate during incubation for 1 hour at 60° C. The reaction was then stopped by adding methanol and the derivatives were separated and determined by HPLC.
(§5) The results are expressed as percentage inhibition of the accumulation of sorbitol, compared with the controls.

In data set [3] the test system is accumulation of sorbitol in the crystalline lenses. Kind of data set: Inhibition of accumulation of sorbitol in crystalline lenses of diabetic rats. Format: in vivo, Sprague Dawley rats. As to conditions: for Inhibition of accumulation of sorbitol in vivo, crystalline lenses: oral 25 mg/kg at 0, 7 and 24 h, sacrificed 27 h; for inhibition of accumulation of sorbitol in crystalline lenses and sciatic nerves (in words): oral 25 mg/kg. The procedure: as §1, §2, §3, §4, §5

Data set [4] addresses T1, aldose reductase (Rattus norvegicus, UniProt P07943).
T1 construct: The supernatant liquid formed the enzyme solution used for the test; from tissue; host or cells: rat crystalline lens, water homogenate, supernatant
Kind of data set: Inhibition of enzymatic activity of aldose reductase in vitro. As to conditions: 10^-4 M, rat crystalline lens enzyme, pH 6.2, D,L-glyceraldehyde substrate; read-out: Inhibition of enzymatic activity of AR in vitro. The class given is biochemical. The text has this:
1.1 Inhibiting effect on enzymatic activity of aldose reductase:
The method described by S. Hayman and J. H. Kinoshita (J. Biol. Chem., 240, 877 (1965)) was used for in vitro testing of the aforementioned effect of the products according to the invention.
Rat's crystalline lens was homogenized in water and centrifuged to eliminate insoluble substances. The supernatant liquid formed the enzyme solution used for the test.
The effect of products according to the invention in inhibiting enzymatic activity of aldose reductase was determined by spectrophotometrically following for 5 minutes the disappearance of NADPH in an aqueous solution containing 0.067M phosphate buffer (final pH: 6.2), 0.40M lithium sulphate, 5.10^-5 M NADPH, 10^-4 M of the product under test and 100 μl of the enzyme solution, to which 10^-2 M of D,L-glyceraldehyde had been added as substrate. (NADPH=reduced form of nicotinamide adenine dinucleotide phosphate).
The inhibiting effect observed in the presence of 10^-4 M of product under test relative to the reaction in the absence of a compound according to the invention, is expressed as a percentage.

Consider `O=C(OCN1C(=O)N(COC(=O)c2ccccc2)C2(C1=O)c1ccccc1-c1ccccc12)c1ccccc1` [Compound 3], for which, in data set [1], the LD50 at 336 h is more than 3000 mg/kg. The “Inhibition of accumulation of sorbitol in vivo, in sciatic nerves” value (shortened to “Inhibition … in sciatic nerves”) in data set [2] is reported as 55%. For the same compound, the “Inhibition of accumulation of sorbitol in vivo, crystalline lenses” value (from here on “Inhibition … in vivo, crystalline lenses”) in data set [3] was 37%.
Consider `CCOC(=O)OCN1C(=O)N(COC(=O)OCC)C2(C1=O)c1ccccc1-c1ccccc12` [Compound 10, bis-(1',3'-ethoxycarbonyloxymethyl)-spiro-/fluorene-9,4'-imidazolidine/-2',5'-dione], for which the LD50 at 336 h in data set [1] was more than 3000 mg/kg. Also, in data set [2], the “Inhibition … in sciatic nerves” value was 84%. For the same compound, in data set [3], the “Inhibition … in vivo, crystalline lenses” value came out at 80%; the “inhibition of accumulation of sorbitol in crystalline lenses and sciatic nerves (in words)” value (“inhibition of accumulation … (in words)” for short) is “particularly active”.
Turning to `O=C(OCN1C(=O)N(COC(=O)C2CCCC2)C2(C1=O)c1ccccc1-c1ccccc12)C1CCCC1` [Compound 19], in data set [1], the LD50 at 336 h is more than 3000 mg/kg. For the same compound, in data set [2], the “Inhibition … in sciatic nerves” value was found to be 89%. Also, in data set [3], the “Inhibition … in vivo, crystalline lenses” value is on record as 77%; the “inhibition of accumulation … (in words)” value is on record as “particularly active”.
In the case of `COCN1C(=O)NC2(C1=O)c1ccccc1-c1ccccc12` [Compound 17, 1'-(methoxymethyl)-spiro-/fluorene-9,4'-imidazolidine/-2',5'-dione], the inhibition at 100 µM in data set [4] worked out at 84%. Besides, in data set [2], the “Inhibition … in sciatic nerves” value is given as 92%. In data set [3], the “Inhibition … in vivo, crystalline lenses” value was 86%; the “inhibition of accumulation … (in words)” value is “particularly active”.
Consider `CCC(C(=O)OCN1C(=O)N(COC(=O)C(CC)c2ccccc2)C2(C1=O)c1ccccc1-c1ccccc12)c1ccccc1` (stereo not shown) [Compound 20], for which the LD50 at 336 h in data set [1] was more than 3000 mg/kg. The “Inhibition … in sciatic nerves” value in data set [2] was 77%. In addition, the “Inhibition … in vivo, crystalline lenses” value in data set [3] worked out at 60%.
As for `CNC(=O)OCN1C(=O)N(COC(=O)NC)C2(C1=O)c1ccccc1-c1ccccc12` [Compound 22], the inhibition at 100 µM in data set [4] was determined as 0%. In data set [2], the “Inhibition … in sciatic nerves” value amounted to 17%. Further, the “Inhibition … in vivo, crystalline lenses” value in data set [3] is given as 21%.
With `O=C(CCCC1CCCCC1)OCN1C(=O)N(COC(=O)CCCC2CCCCC2)C2(C1=O)c1ccccc1-c1ccccc12` [Compound 8], the median lethal dose (LD50) at 336 h in data set [1] is more than 3000 mg/kg. In data set [2], the “Inhibition … in sciatic nerves” value amounted to 85%. Besides, in data set [3], the “Inhibition … in vivo, crystalline lenses” value is 69%; the “inhibition of accumulation … (in words)” value is “particularly active”.
Take `O=C(OCN1C(=O)N(COC(=O)Oc2ccccc2)C2(C1=O)c1ccccc1-c1ccccc12)Oc1ccccc1` [Compound 16]: the LD50 at 336 h in data set [1] was more than 3000 mg/kg. The “Inhibition … in sciatic nerves” value in data set [2] was determined as 65%. Besides, the “Inhibition … in vivo, crystalline lenses” value in data set [3] stood at 53%.
As to `CC(=O)OCN1C(=O)NC2(C1=O)c1ccccc1-c1ccccc12` [Compound 21, 1'-(acetoxymethyl)-spiro-/fluorene-9,4'-imidazolidine/-2',5'-dione], the LD50 at 336 h in data set [1] was more than 1000 mg/kg. Further, in data set [4], the inhibition at 100 µM is 8%. Moreover, the “Inhibition … in sciatic nerves” value in data set [2] came out at 94%. In data set [3], the “Inhibition … in vivo, crystalline lenses” value is 85%; the “inhibition of accumulation … (in words)” value is “particularly active”.
As for `O=C(OCN1C(=O)N(COC(=O)C2CCCCC2)C2(C1=O)c1ccccc1-c1ccccc12)C1CCCCC1` [Compound 12], in data set [1], the LD50 at 336 h is more than 1000 mg/kg. For the same compound, the “Inhibition … in sciatic nerves” value in data set [2] is given as 48%. Further, the “Inhibition … in vivo, crystalline lenses” value in data set [3] is on record as 12%.
For `CC(C)(C)C(=O)OCN1C(=O)N(COC(=O)C(C)(C)C)C2(C1=O)c1ccccc1-c1ccccc12` [Compound 4], in data set [2], the “Inhibition … in sciatic nerves” value is 50%. In data set [3], the “Inhibition … in vivo, crystalline lenses” value worked out at 51%.
As for `O=C(Nc1ccccc1)OCN1C(=O)N(COC(=O)Nc2ccccc2)C2(C1=O)c1ccccc1-c1ccccc12` [Compound 18, bis-(1',3'-N-phenylcarbamoyloxymethyl)-spiro-/fluorene-9,4'-imidazolidine/-2',5'-dione], the LD50 at 336 h in data set [1] is more than 3000 mg/kg. The “Inhibition … in sciatic nerves” value in data set [2] is reported as 17%. Also, the “Inhibition … in vivo, crystalline lenses” value in data set [3] is given as 8%.
As to `O=C(OCc1ccccc1)OCN1C(=O)N(COC(=O)OCc2ccccc2)C2(C1=O)c1ccccc1-c1ccccc12` [Compound 13], in data set [2], the “Inhibition … in sciatic nerves” value is on record as 50%. Moreover, the “Inhibition … in vivo, crystalline lenses” value in data set [3] was 33%.
For `O=C(COc1ccccc1)OCN1C(=O)N(COC(=O)COc2ccccc2)C2(C1=O)c1ccccc1-c1ccccc12` [Compound 14], the LD50 at 336 h in data set [1] is more than 1000 mg/kg. For the same compound, the “Inhibition … in sciatic nerves” value in data set [2] stood at 61%. The “Inhibition … in vivo, crystalline lenses” value in data set [3] was determined as 51%.
Consider `CC(C)(C)CC(=O)OCN1C(=O)N(COC(=O)CC(C)(C)C)C2(C1=O)c1ccccc1-c1ccccc12` [Compound 9], for which the LD50 at 336 h in data set [1] is more than 1000 mg/kg. For the same compound, the “Inhibition … in sciatic nerves” value in data set [2] stood at 70%. In addition, in data set [3], the “Inhibition … in vivo, crystalline lenses” value is recorded as 49%.
`CC(OC(=O)C(C)(C)C)N1C(=O)NC2(C1=O)c1ccccc1-c1ccccc12` (stereo not shown) [Compound 7, 1'-/1-(2,2-dimethylpropanoyloxy)-ethyl/-spiro-/fluorene-9,4'-imidazolidine/-2',5'-dione]: the “Inhibition … in sciatic nerves” value in data set [2] was found to be 72%. Further, the “Inhibition … in vivo, crystalline lenses” value in data set [3] is 45%.
`CCCCCCCC(=O)OCN1C(=O)N(COC(=O)CCCCCCC)C2(C1=O)c1ccccc1-c1ccccc12` [Compound 6, bis-(1',3'-n.octanoyloxymethyl)-spiro-/fluorene-9,4'-imidazolidine/-2',5'-dione]: the 50% lethal dose (LD50) at 336 h in data set [1] was more than 3000 mg/kg. Moreover, in data set [4], the inhibition at 100 µM was determined as 0%. For the same compound, the “Inhibition … in sciatic nerves” value in data set [2] is on record as 79%. For the same compound, the “Inhibition … in vivo, crystalline lenses” value in data set [3] is 76%.
Regarding `O=C(CCCc1ccccc1)OCN1C(=O)N(COC(=O)CCCc2ccccc2)C2(C1=O)c1ccccc1-c1ccccc12` [Compound 11], the inhibition at 100 µM in data set [4] was found to be 0%. Moreover, the “Inhibition … in sciatic nerves” value in data set [2] was determined as 24%. In addition, the “Inhibition … in vivo, crystalline lenses” value in data set [3] was found to be 4%.
Turning to `CCCCC(=O)OCN1C(=O)N(COC(=O)CCCC)C2(C1=O)c1ccccc1-c1ccccc12` [Compound 15], the inhibition at 100 µM in data set [4] turned out to be 0%. Besides, the “Inhibition … in sciatic nerves” value in data set [2] is 74%. For the same compound, in data set [3], the “Inhibition … in vivo, crystalline lenses” value was 54%.
